Assay results published in patent US4490527A, “Benzo-fused heterocyclic anti-ulcer agents” (American Home Products Corporation, priority 1983, dated 1984).
“Also recorded” adds a separate entry of the source. Structures can show the parent of a compound that is named as a salt. Where two headings read alike, the source gives them in different places.

Experiments:
[1] = system: gastric acid secretion; test: inhibition of secretion of acidic gastric juice in dogs (Pavlov gastric pouch, fed); type: in vivo, dog (beagle); conditions: for ED50: Canis lupus familiaris, po, read-out: ID50 (dose at which there is obtained a 50% inhibition of the total gastric acid output)
Description: The procedure for testing the ability of the compounds of the invention to inhibit the secretion of acidic gastric juice in dogs is as follows: A female pure bred beagle (7-10 kg) having Pavlov gastric pouches is fasted overnight with water ad lib. The animal is orally dosed and thirty minutes later it is fed to induce gastric acid secretions. Gastric acid samples are then collected every 15 minutes. The volume of each sample is measured and aliquots are titrated to neutrality with 0.1N NaOH to determine acid concentration.

[2] = system: gastric acid secretion; test: gastric secretion in the rat, modified Shay procedure of pylorus ligation; type: in vivo; conditions: intraduodenal, 4 h, i.d., four hours after ligation, read-out: % Inhibition (of acid output)
Description: The procedure for testing gastric secretion in the rat, a modification of the procedure of Shay et al., Gastroenterology, 26, 906-13 (1954) is carried out as follows: Male Charles River rats weighing 200-300 grams are deprived of food but not water for 24 hours prior to use. Water is, however, withheld during the experiment. The rats are weighed, anesthetized, and the pylorus ligated according to the method of Shay et al. Treatment or vehicle control is then administered interduodenally (i.d.). Rats are housed 2/cage and sacrificed with CO2 four hours after ligation. The stomachs are removed, rinsed, and contents emptied into a graduated centrifuge tube. The tubes are centrifuged for 20 minutes at 2,000 RPM and the volume of gastric juice recorded. Any samples obviously contaminated by feces, food or hemolysis are eliminated. An aliquot of each is frozen for later analysis of Na^+, K^+ and Cl^- concentration. The pH is measured and 1 ml. of gastric juice is titrated with 0.1N NaOH to a pH of 7.0-7.4. Titratable acid output is calculated in microequivalents and the percent inhibition of acid output is calculated as follows: [formula]

[3] = biological target: H2 histamine receptors (Cavia porcellus, UniProt P47747); test: cell-based; set-up: species or system guinea pig; conditions: vs histamine dose-response, 32° C., pH 7.4
Chain of H2 histamine receptors (P47747 whole entry): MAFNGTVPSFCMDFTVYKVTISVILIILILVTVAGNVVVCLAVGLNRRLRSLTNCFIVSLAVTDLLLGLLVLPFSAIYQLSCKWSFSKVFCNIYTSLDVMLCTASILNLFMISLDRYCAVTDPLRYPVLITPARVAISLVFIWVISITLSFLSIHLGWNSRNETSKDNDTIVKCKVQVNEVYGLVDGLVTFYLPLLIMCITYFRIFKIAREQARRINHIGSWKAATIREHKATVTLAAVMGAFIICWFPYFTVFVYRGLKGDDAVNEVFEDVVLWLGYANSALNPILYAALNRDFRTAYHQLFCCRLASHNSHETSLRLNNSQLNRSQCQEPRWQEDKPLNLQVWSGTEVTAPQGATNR
Description: The guinea pig heart atrium test is carried out as follows:
A guinea pig right atrium is suspended at 1 g. tension (isometric) in a thermostatically controlled (32° C.) tissue bath (10 ml) containing oxygenated (95% O2 ; 5% CO2) Krebs-Haenseleit buffer (pH 7.4). The tissue is allowed to stabilize over 1 hour. Individual contractions are recorded with a force-displacement transducer through a strain gauge coupler. A control dose-response curve to histamine in the above described tissue bath is obtained after which the tissue is washed 3 times and allowed to re-equilibrate to basal rate. The test compound is added to the tissue bath at the desired final concentration. Thirty minutes after addition of the compound, a fresh histamine dose response curve is again obtained. Then the response to histamine in the presence of antagonist is compared to the histamine control response. This procedure is repeated, using fresh tissues, for each concentration of antagonist tested. […] Cimetidine is used as the standard for this test.

[4] = limitation noted in patients; cited from earlier work
[5] = orally dosed, fed thirty minutes later
[6] = 30 min after addition, results of three experiments, read-out: pA2 Value (apparent dissociation constant of the H2 antagonist) (converted)

Structure (SMILES)	ED50 [1, 5] [mg/kg]	inhibition in vivo at 4 mg/kg [2] [%]	Kb [3, 6] [µM]	inhibition in vivo at 8 mg/kg [2] [%]	other results
CN(C)Cc1ccc(CSCCNC2=NS(=O)(=O)c3ccccc32)o1 [Example 1, N-[2-[[[5-[(dimethylamino)methyl]2-furanyl]methyl]thio]ethyl]-1,2-benzisothiazol-3-amine 1,1-dioxide]	0.8	79	0.1	–	–
CCCN(CCC)Cc1cccc(OCCCNC2=NS(=O)(=O)c3ccccc32)c1.Cl [Example 18, N-[3-[3-[(dipropylamino)methyl]phenoxy]propyl]-1,2-benzisothiazol-3-amine 1,1-dioxide, hydrochloride]	1.2	–	0.0158	67	inhibition in vivo at 16 mg/kg [2]: 89%; inhibition in vivo at 32 mg/kg ([2]; Dose 32 mg/kg): 90%
O=S1(=O)N=C(NCCCOc2cccc(CN3CCCC3)c2)c2ccccc21 [Example 20, N-[3-[3-(1-pyrrolidinylmethyl)phenoxy]propyl]-1,2-benzisothiazol-3-amine 1 ,1-dioxide, hydrochloride, 1/3 hydrate]	1.4	–	0.0251	–	inhibition in vivo at 2 mg/kg ([2]; Dose 2 mg/kg): 50%
Cl.O=S1(=O)N=C(NCCCOc2cccc(CN3CCCCCC3)c2)c2ccccc21 [Example 24, N-[3-[3-[(hexahydro-1H-azepin-1-yl)methyl]phenoxy]-propyl]-1,2-benzisothiazol-3-amine 1,1-dioxide, hydrochloride]	1.2	–	0.00575	50	–
Cl.O=S1(=O)N=C(NCCCOc2ccc(CN3CCCCC3)cc2)c2ccccc21 [Example 38, N-[3-[4-[(1-piperidinyl)methyl]phenoxy]propyl]-1,2-benzisothiazol-3-amine 1,1-dioxide, hydrochloride]	2	52	0.0234	–	inhibition in vivo at 1 mg/kg [2]: 34%; inhibition in vivo at 16 mg/kg [2]: 93%
O=S1(=O)N=C(NCCCOc2cccc(CN3CCCCC3)c2)c2cscc21 [Example 41]	0.25	87	–	91	reduced gastric acid secretions ([1]; dose of 1 mg/kg, orally dosed): 82%; inhibition in vivo at 0.5 mg/kg ([2]; Dose 0.5 mg/kg): 37%; inhibition in vivo at 1 mg/kg [2]: 84%; Kb ([3]; marked *, result of only one experiment, read-out: KB value): 0.00594 µM
CN/C(=N/CCSCc1nc[nH]c1C)NC#N [cimetidine]	–	–	–	–	ED50 [1]: 6 mg/kg; duration of action [4]: short duration of action; side effects [4]: anti-androgenic activity; also recorded: tendency to cause confusional states in elderly patients
CNC(=C[N+](=O)[O-])NCCSCc1ccc(CN(C)C)o1 [ranitidine, reference compound]	2.3	43	–	–	–
